# Results published in paper PMC8950151, “Synthesis and Evaluation of the Antifungal and Toxicological Activity of Nitrofuran Derivatives” (Pharmaceutics, 2022).
# Where two headings read alike, the source gives them in different places.
# Columns and labels:
# [1] = tested on: Trichophyton mentagrophytes (ATCC 11481); experiment: Susceptibility assay for dermatophytes (CLSI M38-A2, resazurin), MIC90; format: cell-based; details: T. mentagrophytes, 35 °C
# [2] = tested on: Cryptococcus neoformans (H99/ATCC 208821); experiment: Minimum fungicidal concentration (MFC); format: cell-based; details: ATCC208821, C. neoformans
# [3] = tested on: Histoplasma capsulatum (G217-B/ATCC 26032); experiment: microbe, parasite or virus in culture; format: cell-based; details: ATCC26032, 144 h
# C. krusei (ATCC 6258) [4] = experiment: Susceptibility test (CLSI M27-A3 broth microdilution, resazurin readout), MIC90; format: cell-based, Candida krusei; details: Pichia kudriavzevii, ATCC6258, 24 h
# [5] = tested on: Histoplasma capsulatum (G217-B/ATCC 26032); experiment: microbe, parasite or virus in culture; format: cell-based; details: ATCC26032
# [6] = tested on: Paracoccidioides brasiliensis (Pb 18); experiment: microbe, parasite or virus in culture; format: cell-based; details: for MFC: Paracoccidioides brasiliensis
# [7] = tested on: Trichophyton mentagrophytes (ATCC 11481); experiment: Minimum fungicidal concentration (MFC); format: cell-based; details: Trichophyton mentagrophytes, ATCC11481; T. mentagrophytes
# C. krusei (ATCC 6258) [8] = experiment: Minimum fungicidal concentration (MFC); format: cell-based, Candida krusei; details: Pichia kudriavzevii, ATCC6258
# Candida species = experiment: Susceptibility test (CLSI M27-A3), MIC90, stated for Candida species together; format: cell-based; details: read-out: MIC90 against Candida species, Candida species (C. albicans, C. krusei, C. glabrata) taken together
# T. rubrum (ATCC 28289) [9] = experiment: Susceptibility assay for dermatophytes (CLSI M38-A2, resazurin), MIC90; format: cell-based; details: Trichophyton rubrum, ATCC28289, 96 h, 35 °C
# in vivo = details: AU37 [glp-4 (bn2) I, sek-1 (km4) X], Caenorhabditis elegans, C. elegans larvae viability
# Description: The experiments were carried out with the mutant strain (AU37 [glp-4 (bn2) I; […]]). The strain was maintained on plates containing nematode growth medium (NGM) seeded with Escherichia coli OP50 at 16 °C. The stage of synchronization of young adults at stage L4 was performed for the toxicity test. About 20 larvae were transferred to each well of 96-well plates containing 100 μL of a medium composed of 60% of 50 mM NaCl; 40% BHI broth; 10 mg/mL cholesterol in ethanol; 200 mg/mL ampicillin and 90 mg/mL kanamycin. Then, 100 μL of dilutions of nitrofuran derivatives (showing the best selectivity index against the fungal species) were added. […] Plates were incubated at 25 °C for 24 h. Survival was assessed by the mobility and shape of the nematode (stick-shaped larvae were considered dead, while sinusoidal larvae were considered alive) under an inverted optical microscope on 40× objective lenses.
# T. rubrum (ATCC 28289) [10] = experiment: Minimum fungicidal concentration (MFC); format: cell-based, Trichophyton rubrum; details: for MFC: Trichophyton rubrum, ATCC28289
# C. glabrata (ATCC 90030) [11] = experiment: Minimum fungicidal concentration (MFC); format: cell-based, Candida glabrata; details: Nakaseomyces glabratus, ATCC90030; C. glabrata; read-out: MFC
# in vitro = details: human
# [12] = tested on: Cryptococcus neoformans (H99/ATCC 208821); experiment: Susceptibility test (CLSI M27-A3 broth microdilution, resazurin readout), MIC90; format: cell-based; details: ATCC208821, 48 h
# [13] = tested on: Candida albicans (ATCC 90028); experiment: Minimum fungicidal concentration (MFC); format: cell-based; details: ATCC90028, C. albicans
# [14] = tested on: Candida albicans (ATCC 90028); experiment: Susceptibility test (CLSI M27-A3 broth microdilution, resazurin readout), MIC90; format: cell-based; details: ATCC90028, C. albicans, 24 h, 37 °C
# [15] = tested on: A549 (ATCC CCL-185) lung epithelial cell line; experiment: Cytotoxicity assay in monolayer by resazurin colorimetric method; format: cell-based; details: Homo sapiens, A549 cells, 72 h
# C. glabrata (ATCC 90030) [16] = experiment: Susceptibility test (CLSI M27-A3 broth microdilution, resazurin readout), MIC90; format: cell-based, Candida glabrata; details: Nakaseomyces glabratus, ATCC90030, 24 h, 37 °C
# T. rubrum ATCC MYA-4438 = experiment: Quality control of dermatophyte susceptibility assay, MIC90; format: cell-based; details: Trichophyton rubrum; T. rubrum ATCC MYA-4438 control strain
# Description: The experiments were performed according to CLSI […]-A2 [65] for dermatophytes, with minor modifications as described by Costa-Orlandi et al.. The fungal suspensions were adjusted by counting the conidia in the hematocytometer to reach a final concentration of 2.5 × 10^3 cells/mL in RPMI-1640 medium. This was added to the wells at the appropriate compound concentrations and incubated at 35 °C for 96 h with agitation (150 rpm). Visual and colorimetric readings were taken with the addition of 20 μL of 0.03% resazurin [61]. Quality control was performed using the strain of T. rubrum ATCC MYA-4438, with the drug TRB.
# [17] = Trichophyton mentagrophytes, ATCC11481, 96 h, read-out: MIC90
SMILES,"MIC90 [1, 17] [µg/mL]",MFC [2] [µg/mL],MIC90 [3] [µg/mL],MIC90 (C. krusei (ATCC 6258) [4]) [µg/mL],MFC [5] [µg/mL],MFC [6] [µg/mL],MFC [7] [µg/mL],MFC (C. krusei (ATCC 6258) [8]) [µg/mL],MIC90 (T. rubrum (ATCC 28289) [9]) [µg/mL],"viability at 24 h, 250 µg/mL (in vivo) [%]",MFC (T. rubrum (ATCC 28289) [10]) [µg/mL],MFC (C. glabrata (ATCC 90030) [11]) [µg/mL],IC50 (in vitro) [µg/mL],MIC90 [12] [µg/mL],MFC [13] [µg/mL],MIC90 [14] [µg/mL],IC50 [15] [µg/mL],MIC90 (C. glabrata (ATCC 90030) [16]) [µg/mL],melting point,also measured
O=C(/C=C/c1ccccc1)OCc1ccc([N+](=O)[O-])o1 [Compound 1],15.6,31.2,> 250,31.2,> 250,62.5,15.6,31.2,> 250,> 94,> 250,> 250,240,31.2,125,3.9,250,7.81,,fungistatic / fungicidal profile [6]: fungistatic profile; MIC90 (Candida species): 3.9 µg/mL
"O=C(NCCCn1ccnc1)c1ccc([N+](=O)[O-])o1 [Compound 2, N-(3-(1H-imidazol-1-yl)propyl)-5-nitrofuran-2-carboxamide]",125,≥ 250,250,> 250,> 250,125,125,> 250,125,,> 250,> 250,90.8,≥ 250,> 250,> 250,49.1,> 250,144 to 148 °C,
COc1ccc(C(=O)/C=C/c2ccc([N+](=O)[O-])o2)cc1 [Compound 12],,125,7.81,250,15.6,3.9,1.95,> 250,0.98,> 94,1.95,> 250,228,62.5,> 250,250,250,250,,"MIC90 ([1]; 96 h): 1.95 µg/mL; MIC90 ([1]; Trichophyton mentagrophytes, ATCC11481, 96 h): 0.98 µg/mL"
"CS(=O)(=O)c1ccc(C(=O)/C=C/c2ccc([N+](=O)[O-])o2)cc1 [Compound 15, (E)-1-(4-(methylsulfonyl)phenyl)-3-(5-nitrofuran-2-yl)prop-2-en-1-one]",7.8,≥ 250,> 250,> 250,> 250,7.81,15.6,> 250,7.8,,15.6,> 250,11.5,≥ 250,> 250,> 250,34.2,> 250,197 to 200 °C (dec.),
"O=C(/C=C/c1ccc([N+](=O)[O-])o1)c1ccc(Cl)cc1Cl [Compound 16, (E)-1-(2,4-dichlorophenyl)-3-(5-nitrofuran-2-yl)prop-2-en-1-one]",7.8,≥ 250,62.5,> 250,62.5,1.95,7.8,> 250,7.8,,31.2,> 250,29.9,≥ 250,> 250,250,35.6,> 250,164 to 165 °C,fungistatic / fungicidal profile (T. rubrum (ATCC 28289) [10]; MFC versus MIC90): fungistatic profile
"CN(C/C=C/C#CC(C)(C)C)Cc1cccc2ccccc12 [TRB, terbinafine]",,,,,,,,,,,,,,,,,,,,MIC90 (T. rubrum ATCC MYA-4438): 0.03 µg/mL
